# Source: ChEMBL document CHEMBL5634090, “Design of phenothiazine-based cationic amphiphilic derivatives incorporating arginine residues: Potential membrane-active broad-spectrum antimicrobials combating pathogenic bacteria in vitro and in vivo” (Eur J Med Chem, 2023)
# Legend:
# [1] = Hemolytic activity in rabbit erythrocytes; assay type: toxicity, cell-based, Oryctolagus cuniculus, Erythrocyte
# Staphylococcus aureus [2] = experiment: Antibacterial activity against methicillin resistant Staphylococcus aureus N315 by microbroth dilution assay; assay type: functional
# Staphylococcus aureus [3] = experiment: Antibacterial activity against Staphylococcus aureus ATCC 29213 by microbroth dilution assay; assay type: functional
# Staphylococcus aureus [4] = experiment: Antibacterial activity against methicillin resistant Staphylococcus aureus NCTC 10442 by microbroth dilution assay; assay type: functional
# Escherichia coli = experiment: Antibacterial activity against Escherichia coli ATCC 25922 by microbroth dilution assay; assay type: functional
# Staphylococcus aureus [5] = experiment: Induction of resistance development in Staphylococcus aureus ATCC 29213 assessed as fold increase in MIC treated over 20 serial passages by microdilution assay; assay type: functional
# Klebsiella pneumoniae [6] = experiment: Antibacterial activity against Klebsiella pneumoniae ATCC 14581 by microbroth dilution assay; assay type: functional
# Pseudomonas aeruginosa = experiment: Antibacterial activity against Pseudomonas aeruginosa ATCC 9027 by microbroth dilution assay; assay type: functional
# Klebsiella pneumoniae [7] = experiment: Antibacterial activity against Klebsiella pneumoniae ATCC 10031 by microbroth dilution assay; assay type: functional
Structure (SMILES),HC50 [1],MIC (Staphylococcus aureus [2]),MIC (Staphylococcus aureus [3]),MIC (Staphylococcus aureus [4]),MIC (Escherichia coli),fold change (FC) (Staphylococcus aureus [5]),MIC (Klebsiella pneumoniae [6]),MIC (Pseudomonas aeruginosa),MIC (Klebsiella pneumoniae [7])
CCCCCCCCCN1c2ccccc2Sc2ccc(OCC(=O)OCC)cc21,> 200 µg/mL,> 50 µg/mL,> 50 µg/mL,> 50 µg/mL,> 50 µg/mL,,,,
CCCCCOc1ccc2c(c1)N(CCCNC(=N)N)c1ccccc1S2,> 200 µg/mL,1.56 µg/mL,1.56 µg/mL,0.78 µg/mL,> 50 µg/mL,,,,
CCCCCN1c2ccccc2Sc2ccc(OCC(=O)N[C@@H](CCCNC(=N)N)C(=O)N[C@@H](CCCNC(=N)N)C(=O)OC)cc21,> 200 µg/mL,3.12 µg/mL,6.25 µg/mL,6.25 µg/mL,> 50 µg/mL,,,,
CCn1cc(C(=O)O)c(=O)c2cc(F)c(N3CCNCC3)cc21 [NORFLOXACIN],,,1.56 µg/mL,,,1024,,,
CCCCCOc1ccc2c(c1)N(CCCCCCCCNC(=N)N)c1ccccc1S2,> 200 µg/mL,1.56 µg/mL,1.56 µg/mL,1.56 µg/mL,> 50 µg/mL,,,,
CCCCCOc1ccc2c(c1)Nc1ccccc1S2,> 200 µg/mL,> 50 µg/mL,> 50 µg/mL,> 50 µg/mL,> 50 µg/mL,,,,
CCCCCN1c2ccccc2Sc2ccc(OCC(=O)OCC)cc21,> 200 µg/mL,> 50 µg/mL,> 50 µg/mL,> 50 µg/mL,> 50 µg/mL,,,,
CCCCCOc1ccc2c(c1)N(CCCCN(CC)CC)c1ccccc1S2,> 200 µg/mL,3.12 µg/mL,6.25 µg/mL,3.12 µg/mL,> 50 µg/mL,,,,
CCCCCCCOc1ccc2c(c1)Nc1ccccc1S2,> 200 µg/mL,> 50 µg/mL,> 50 µg/mL,> 50 µg/mL,> 50 µg/mL,,,,
CCCCCN1c2ccccc2Sc2ccc(OCC(=O)N[C@@H](CCCNC(=N)N)C(=O)OC)cc21,> 200 µg/mL,3.12 µg/mL,12.5 µg/mL,6.25 µg/mL,> 50 µg/mL,,,,
CCOC(=O)COc1ccc2c(c1)Nc1ccccc1S2,> 200 µg/mL,> 50 µg/mL,> 50 µg/mL,> 50 µg/mL,> 50 µg/mL,,,,
CCCCCCCCCOc1ccc2c(c1)Nc1ccccc1S2,> 200 µg/mL,> 50 µg/mL,> 50 µg/mL,> 50 µg/mL,> 50 µg/mL,,,,
CC(C)=CCOc1ccc2c(c1)N(CCCCNC(=N)N)c1ccccc1S2,> 200 µg/mL,0.78 µg/mL,1.56 µg/mL,0.78 µg/mL,> 50 µg/mL,,,,
CCCCCCCN1c2ccccc2Sc2ccc(OCC(=O)N[C@@H](CCCNC(=N)N)C(=O)N[C@@H](CCCNC(=N)N)C(=O)OC)cc21,> 200 µg/mL,1.56 µg/mL,1.56 µg/mL,1.56 µg/mL,6.25 µg/mL,,25 µg/mL,> 50 µg/mL,25 µg/mL
CCCCCCCN1c2ccccc2Sc2ccc(OCC(=O)N[C@@H](CCCNC(=N)N)C(=O)N[C@@H](CCCNC(=N)N)C(=O)N[C@@H](CCCNC(=N)N)C(=O)OC)cc21,> 200 µg/mL,0.78 µg/mL,0.78 µg/mL,0.78 µg/mL,12.5 µg/mL,,,,
CCCCCCCOc1ccc2c(c1)N(CCCCN)c1ccccc1S2,> 200 µg/mL,1.56 µg/mL,3.12 µg/mL,3.12 µg/mL,> 50 µg/mL,,,,
CCCCCOc1ccc2c(c1)N(CCCCCCN)c1ccccc1S2,> 200 µg/mL,1.56 µg/mL,3.12 µg/mL,1.56 µg/mL,> 50 µg/mL,,,,
CCCCCCCCCN1c2ccccc2Sc2ccc(OCC(=O)N[C@@H](CCCNC(=N)N)C(=O)N[C@@H](CCCNC(=N)N)C(=O)OC)cc21,> 200 µg/mL,1.56 µg/mL,1.56 µg/mL,1.56 µg/mL,1.56 µg/mL,,6.25 µg/mL,50 µg/mL,3.12 µg/mL

Structure (SMILES),HC50 [1],MIC (Staphylococcus aureus [2]),MIC (Staphylococcus aureus [3]),MIC (Staphylococcus aureus [4]),MIC (Escherichia coli),fold change (FC) (Staphylococcus aureus [5]),MIC (Klebsiella pneumoniae [6]),MIC (Pseudomonas aeruginosa),MIC (Klebsiella pneumoniae [7])
CCCCCCCCCN1c2ccccc2Sc2ccc(OCC(=O)N[C@@H](CCCNC(=N)N)C(=O)N[C@@H](CCCNC(=N)N)C(=O)N[C@@H](CCCNC(=N)N)C(=O)OC)cc21,> 200 µg/mL,0.78 µg/mL,1.56 µg/mL,1.56 µg/mL,3.12 µg/mL,,12.5 µg/mL,12.5 µg/mL,12.5 µg/mL
CC1(C)S[C@@H]2[C@H](NC(=O)[C@H](N)c3ccc(O)cc3)C(=O)N2[C@H]1C(=O)O [AMOXICILLIN],,,,,6.25 µg/mL,,,,
CCCCCCCN1c2ccccc2Sc2ccc(OCC(=O)OCC)cc21,> 200 µg/mL,> 50 µg/mL,> 50 µg/mL,> 50 µg/mL,> 50 µg/mL,,,,
CCCCCOc1ccc2c(c1)N(CCCCNC(=N)N)c1ccccc1S2,> 200 µg/mL,1.56 µg/mL,1.56 µg/mL,1.56 µg/mL,6.25 µg/mL,,25 µg/mL,> 50 µg/mL,6.25 µg/mL
CCCCCOc1ccc2c(c1)N(CCCCN)c1ccccc1S2,> 200 µg/mL,3.12 µg/mL,3.12 µg/mL,3.12 µg/mL,25 µg/mL,,,,
CCCCCCCCCOc1ccc2c(c1)N(CCCCNC(=N)N)c1ccccc1S2,> 200 µg/mL,1.56 µg/mL,3.12 µg/mL,1.56 µg/mL,> 50 µg/mL,,,,
CC(C)=CCOc1ccc2c(c1)Nc1ccccc1S2,> 200 µg/mL,> 50 µg/mL,> 50 µg/mL,> 50 µg/mL,> 50 µg/mL,,,,
CCCCCOc1ccc2c(c1)N(CCCCCCNC(=N)N)c1ccccc1S2,> 200 µg/mL,1.56 µg/mL,1.56 µg/mL,1.56 µg/mL,> 50 µg/mL,,,,
CCCCCOc1ccc2c(c1)N(CCCN)c1ccccc1S2,> 200 µg/mL,3.12 µg/mL,3.12 µg/mL,3.12 µg/mL,25 µg/mL,,,,
CCCCCOc1ccc2c(c1)N(CCCCCCCCN(CC)CC)c1ccccc1S2,> 200 µg/mL,3.12 µg/mL,3.12 µg/mL,3.12 µg/mL,> 50 µg/mL,,,,
COc1ccc2c(c1)Nc1ccccc1S2,> 200 µg/mL,> 50 µg/mL,> 50 µg/mL,> 50 µg/mL,> 50 µg/mL,,,,
Oc1ccc2c(c1)Nc1ccccc1S2,> 200 µg/mL,> 50 µg/mL,> 50 µg/mL,> 50 µg/mL,> 50 µg/mL,,,,
CCCCCCCCCN1c2ccccc2Sc2ccc(OCC(=O)N[C@@H](CCCNC(=N)N)C(=O)N[C@@H](CCCNC(=N)N)C(N)=O)cc21,> 200 µg/mL,1.56 µg/mL,1.56 µg/mL,0.78 µg/mL,1.56 µg/mL,,3.12 µg/mL,> 50 µg/mL,3.12 µg/mL
CCCCCCCCCOc1ccc2c(c1)N(CCCCN)c1ccccc1S2,> 200 µg/mL,3.12 µg/mL,3.12 µg/mL,3.12 µg/mL,> 50 µg/mL,,,,
CC(C)=CCOc1ccc2c(c1)N(CCCCN)c1ccccc1S2,> 200 µg/mL,6.25 µg/mL,6.25 µg/mL,6.25 µg/mL,> 50 µg/mL,,,,
CCCCCOc1ccc2c(c1)N(CCCCCCN(CC)CC)c1ccccc1S2,> 200 µg/mL,1.56 µg/mL,3.12 µg/mL,3.12 µg/mL,> 50 µg/mL,,,,
CCCCCOc1ccc2c(c1)N(CCCCCCCCN)c1ccccc1S2,> 200 µg/mL,3.12 µg/mL,3.12 µg/mL,3.12 µg/mL,> 50 µg/mL,,,,
CCCCCCCOc1ccc2c(c1)N(CCCCNC(=N)N)c1ccccc1S2,> 200 µg/mL,0.78 µg/mL,3.12 µg/mL,0.78 µg/mL,> 50 µg/mL,,,,
